Assay results: patent US9011853B2, “B7-H4 fusion proteins and methods of use thereof” (Amplimmune, Inc., priority 2009, dated 2015)
Where “and” joins values, the source holds several entries; their conditions need not be identical. Equal entries are not always repeated.

Test system: serum levels of 58 analytes
Assay: Serum biomarker analysis, quantitative immunoassay multi-analyte profiling (Rules-Based Medicine RodentMAP v2.9), AA#80
Assay type: in vivo, mouse
Conditions: serum, listed as Human LgG1 Control
Procedure: In AA#80, serum samples were collected on Day 27, Day 34, Day 41 and Day 55 via the submandibular vein. Approximately 200 μL of blood per mouse was collected in Microtainer® serum separator tubes. Serum was removed following centrifugation and stored at <−65° C. until analysis.
Selected serum samples were sent to Rules-Based Medicine (Austin, Tex.) for quantitative immunoassay multi-analyte profiling of serum samples, with the goal of identifying biomarkers that could be used to monitor disease progression and response to B7-H4-Ig treatment. Day 27, Day 34, and Day 41 sera from the three representative mice in the B7-H4-Ig group (tag #3332, 3334, and 3338) and three representative mice in the Synagis® group (tag #3324, 3329, and 3330) were analyzed for levels of 58 analytes using the RodentMAP v2.9 Testing Service.
Data from the Rules-Based Medicine analysis was analyzed using Microsoft Excel and GraphPad Prism software. T-tests were performed to compare the levels of each analyte in the B7-H4-Ig versus Synagis® treated samples. No correction was made for multiple comparisons. Additionally, correlation coefficients were calculated for each analyte versus disease score.

Synagis®: humanized monoclonal IgG antibody against the F protein of Respiratory Syncytial Virus; used as a human IgG1 isotype control [reference compound]
MDC (Macrophage-Derived Chemokine) (Day 41, LDD 21.85): 1410 pg/mL and 1430 pg/mL and 1150 pg/mL
MCP-3 (Monocyte Chemoattractant Protein-3) (Day 41, LDD 31.36): 235 pg/mL and 236 pg/mL and 242 pg/mL
VEGF (Vescular Endotheial Cell Growth Factor) (Day 41, LDD 38.2): 150 pg/mL and 171 pg/mL and 212 pg/mL
IP-10 (Inducible Protein-10) (Day 41, LDD 40.28): 54.7 pg/mL and 68.1 pg/mL and 66.8 pg/mL
LIF (Leukemia Infabitory Factor) (Day 41, LDD 43.6): 1650 pg/mL and 1580 pg/mL and 1470 pg/mL
MCP-5 (Monocyte Chemoattractant Protein-5) (Day 41, LDD 46.38): 45.6 pg/mL and 47.4 pg/mL and 52.8 pg/mL
SCF (Stem Cell Factor) (Day 41, LDD 75.17): 214 pg/mL and 249 pg/mL and 201 pg/mL
MIP-1beta (Macrophage Inflammatory Protein-1beta) (Day 41, LDD 77.65): 144 pg/mL and 115 pg/mL and 152 pg/mL
Lymphotactin (Day 41, LDD 85.48): 178 pg/mL and 183 pg/mL and 194 pg/mL
VWF (Von Willebrand Factor) (Day 41, LDD 98.6): 131 ng/mL and 103 ng/mL and 111 ng/mL
M-CSF (Macrophage-Colony Stimulating Factor) (Day 27, LDD 0.01795, individual mice): 6.19 ng/mL and 6.6 ng/mL and 6.59 ng/mL
MIP-1gamma (Macrophage Inflammatory Protein-1gamma) (Day 27, LDD 0.0736, individual mice): 36.9 ng/mL and 37.1 ng/mL and 37.9 ng/mL
OSM (Oncostatin M) (Day 27, LDD 0.13, individual mice): <low> (2×) and 0.0103 ng/ml
TNF-alpha (Tumor Necrosis Factor-alpha) (Day 27, LDD 0.137, individual mice): 0.0965 ng/ml and <low> (2×)
KC/GROalpha (Melanoma Growth Stimulatory Activity Protein) (Day 27, LDD 0.1739, individual mice): 0.0804 ng/mL and 0.0795 ng/mL and 0.0633 ng/mL
TEMP-1 (Tissue Inhibitor of Metalicproteinase Type-1) (Day 27, LDD 0.18, individual mice): 1.38 ng/mL and 1.13 ng/mL and 1.23 ng/mL
IL-5 (Interleukin-5) (Day 27, LDD 0.194, individual mice): 0.438 ng/mL and 0.403 ng/mL and 0.264 ng/mL
MIP-1alpha (Macrophage Inflammatory Protein-1alpha) (Day 27, LDD 0.2255, individual mice): 3.03 ng/ml (2×) and 3.32 ng/ml
IL-7 (Interleukin-7) (Day 27, LDD 0.309, individual mice): 0.0593 ng/ml and <low> (2×)
MIP-3beta (Macrophage Inflammatory Protein-3beta) (Day 27, LDD 0.465, individual mice): 2.89 ng/mL and 3.05 ng/mL and 2.6 ng/mL
RANTCS (Regulation Upon Activation Normal T-Cell Expressed and Secreted) (Day 27, LDD 0.5, individual mice): 0.0826 pg/ml and <low> (2×)
Tissue Factor (Day 27, LDD 0.5175, individual mice): 9.17 ng/ml (2×) and 10 ng/ml
MPO (Myeloperoxidase) (Day 27, LDD 0.95, individual mice): 216 ng/mL and 191 ng/mL and 265 ng/mL
SGOT (Serum Glutamic-Oxaloacetic Transaminase) (Day 27, LDD 1.86, individual mice): 84.6 µg/mL and 79.7 µg/mL and 75.4 µg/mL
TPO (Thromboproletin) (Day 27, LDD 2.66, individual mice): 38.9 ng/ml (2×) and 34.2 ng/ml
SAP (Setrum Amtyloid P) (Day 27, LDD 5.4, individual mice): 40.5 µg/mL and 34.2 µg/mL and 42.9 µg/mL
MIP-2 (Macrophage Inflammatory Protein-2) (Day 27, LDD 7.174, individual mice): 16.1 pg/mL and 22.2 pg/mL and 23.4 pg/mL
MMP-9 (Matrix Metalloproteinase-9) (Day 27, LDD 10, individual mice): 166 ng/mL and 177 ng/mL and 431 ng/mL
IL-6 (Interleukin-6) (Day 27, LDD 13.852, individual mice): 6.27 pg/ml (2×) and <low>
MCP-1 (Monocyte Chemoattractant Protein-1) (Day 27, LDD 16.924, individual mice): 74.4 pg/mL and 64.7 pg/mL and 70.5 pg/mL
VCAM-1 (Vescular Cell Adhesion Molecule-1) (Day 27, LDD 19, individual mice): 2260 ng/mL and 2080 ng/mL and 3160 ng/mL
MDC (Macrophage-Derived Chemokine) (Day 27, LDD 21.85, individual mice): 1250 pg/mL and 1310 pg/mL and 1070 pg/mL
Myoglobin (Day 27, LDD 24, individual mice): 8.96 ng/mL and 11.4 ng/mL and 23.8 ng/mL
MCP-3 (Monocyte Chemoattractant Protein-3) (Day 27, LDD 31.36, individual mice): 168 pg/mL and 149 pg/mL and 138 pg/mL
VEGF (Vescular Endotheial Cell Growth Factor) (Day 27, LDD 38.2, individual mice): 144 pg/mL and 136 pg/mL and 139 pg/mL
IP-10 (Inducible Protein-10) (Day 27, LDD 40.28, individual mice): 45.3 pg/mL and 52 pg/mL and 55.5 pg/mL
LIF (Leukemia Infabitory Factor) (Day 27, LDD 43.6, individual mice): 1650 pg/mL and 1390 pg/mL and 1470 pg/mL
MCP-5 (Monocyte Chemoattractant Protein-5) (Day 27, LDD 46.38, individual mice): 35.7 pg/mL and 37.1 pg/mL and 35.5 pg/mL
SCF (Stem Cell Factor) (Day 27, LDD 75.17, individual mice): 226 pg/mL and 207 pg/mL and 220 pg/mL
MIP-1beta (Macrophage Inflammatory Protein-1beta) (Day 27, LDD 77.65, individual mice): 173 pg/ml (2×) and 150 pg/ml
Lymphotactin (Day 27, LDD 85.48, individual mice): 198 pg/mL and 178 pg/mL and 189 pg/mL
VWF (Von Willebrand Factor) (Day 27, LDD 98.6, individual mice): 125 ng/mL and 131 ng/mL and 155 ng/mL
